Our source for the Activity values is ChEMBL document CHEMBL1150976, “The selectivity of protein kinase inhibitors: a further update” (Biochem J, 2007).

For experiment [1], the target named is Serine/threonine-protein kinase pim-1 (Homo sapiens, UniProt P11309). In words: Percentage PIM1 activity remaining in the presence of 0.01uM inhibitor.
Experiment [2] deals with Serine/threonine-protein kinase pim-2 (Homo sapiens, UniProt Q9P1W9). Kind of experiment: Percentage PIM2 activity remaining in the presence of 0.01uM inhibitor.
Serine/threonine-protein kinase pim-2, sequence (Q9P1W9 whole entry, looked up): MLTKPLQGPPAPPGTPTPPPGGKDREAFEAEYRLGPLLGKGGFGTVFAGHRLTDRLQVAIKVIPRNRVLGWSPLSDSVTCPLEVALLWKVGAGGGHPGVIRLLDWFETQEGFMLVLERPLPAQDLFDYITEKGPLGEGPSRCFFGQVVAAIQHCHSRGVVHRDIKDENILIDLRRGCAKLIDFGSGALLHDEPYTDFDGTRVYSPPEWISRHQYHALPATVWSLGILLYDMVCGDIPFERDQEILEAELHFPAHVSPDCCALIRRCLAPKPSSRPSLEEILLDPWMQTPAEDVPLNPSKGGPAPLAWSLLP
Experiment [3] has as its target T1, Mitogen-activated protein kinase 13 (Homo sapiens) (UniProt O15264).
T1 sequence (whole entry): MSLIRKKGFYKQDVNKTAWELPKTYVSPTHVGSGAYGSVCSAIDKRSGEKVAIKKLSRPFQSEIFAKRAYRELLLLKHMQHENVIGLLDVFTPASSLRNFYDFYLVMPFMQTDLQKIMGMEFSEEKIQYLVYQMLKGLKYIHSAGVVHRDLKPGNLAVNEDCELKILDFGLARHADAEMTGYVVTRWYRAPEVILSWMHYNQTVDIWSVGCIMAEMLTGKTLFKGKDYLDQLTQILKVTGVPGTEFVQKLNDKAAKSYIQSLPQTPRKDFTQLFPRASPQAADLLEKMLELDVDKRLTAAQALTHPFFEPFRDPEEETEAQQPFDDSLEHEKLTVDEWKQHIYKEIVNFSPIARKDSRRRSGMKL
Kind of experiment: Percentage p38delta activity remaining in the presence of 0.01uM inhibitor.

In experiment [4] the target is Proto-oncogene tyrosine-protein kinase LCK (Mus musculus) (UniProt P06240). In words: Percentage Lck activity remaining in the presence of 0.01uM inhibitor.
Proto-oncogene tyrosine-protein kinase LCK (Mus musculus), sequence (P06240 2-509 limits assumed): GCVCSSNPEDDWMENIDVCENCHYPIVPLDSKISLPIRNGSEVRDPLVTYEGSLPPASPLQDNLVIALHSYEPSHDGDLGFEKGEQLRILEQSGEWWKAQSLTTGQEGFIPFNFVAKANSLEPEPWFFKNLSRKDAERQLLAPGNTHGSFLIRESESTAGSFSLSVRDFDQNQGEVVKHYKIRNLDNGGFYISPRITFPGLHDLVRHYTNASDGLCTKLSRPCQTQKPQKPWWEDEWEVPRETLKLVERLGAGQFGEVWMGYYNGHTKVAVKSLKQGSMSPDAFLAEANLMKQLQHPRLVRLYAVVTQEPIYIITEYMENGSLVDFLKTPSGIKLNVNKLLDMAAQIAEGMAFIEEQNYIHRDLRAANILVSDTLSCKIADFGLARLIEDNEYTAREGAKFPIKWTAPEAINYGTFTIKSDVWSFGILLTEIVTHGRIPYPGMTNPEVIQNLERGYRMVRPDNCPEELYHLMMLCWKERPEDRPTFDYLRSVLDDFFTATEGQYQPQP
The target in experiment [5] is Serine/threonine-protein kinase Nek7 (Homo sapiens) (UniProt Q8TDX7). In words: Percentage NEK7 activity remaining in the presence of 0.01uM inhibitor.
Serine/threonine-protein kinase Nek7 (Homo sapiens), sequence (Q8TDX7 whole entry, looked up): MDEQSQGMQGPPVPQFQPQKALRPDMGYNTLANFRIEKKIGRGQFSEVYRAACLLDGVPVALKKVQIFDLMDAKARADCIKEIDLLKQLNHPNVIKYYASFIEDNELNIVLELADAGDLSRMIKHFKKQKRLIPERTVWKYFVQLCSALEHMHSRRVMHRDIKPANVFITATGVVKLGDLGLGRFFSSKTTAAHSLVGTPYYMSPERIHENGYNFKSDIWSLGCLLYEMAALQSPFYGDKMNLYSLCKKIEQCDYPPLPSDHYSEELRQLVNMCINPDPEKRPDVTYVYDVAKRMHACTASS
Experiment [6] deals with Maternal embryonic leucine zipper kinase (Homo sapiens) (UniProt Q14680). In words: Percentage MELK activity remaining in the presence of 0.01uM inhibitor.
Maternal embryonic leucine zipper kinase (Homo sapiens), sequence (Q14680 whole entry, looked up): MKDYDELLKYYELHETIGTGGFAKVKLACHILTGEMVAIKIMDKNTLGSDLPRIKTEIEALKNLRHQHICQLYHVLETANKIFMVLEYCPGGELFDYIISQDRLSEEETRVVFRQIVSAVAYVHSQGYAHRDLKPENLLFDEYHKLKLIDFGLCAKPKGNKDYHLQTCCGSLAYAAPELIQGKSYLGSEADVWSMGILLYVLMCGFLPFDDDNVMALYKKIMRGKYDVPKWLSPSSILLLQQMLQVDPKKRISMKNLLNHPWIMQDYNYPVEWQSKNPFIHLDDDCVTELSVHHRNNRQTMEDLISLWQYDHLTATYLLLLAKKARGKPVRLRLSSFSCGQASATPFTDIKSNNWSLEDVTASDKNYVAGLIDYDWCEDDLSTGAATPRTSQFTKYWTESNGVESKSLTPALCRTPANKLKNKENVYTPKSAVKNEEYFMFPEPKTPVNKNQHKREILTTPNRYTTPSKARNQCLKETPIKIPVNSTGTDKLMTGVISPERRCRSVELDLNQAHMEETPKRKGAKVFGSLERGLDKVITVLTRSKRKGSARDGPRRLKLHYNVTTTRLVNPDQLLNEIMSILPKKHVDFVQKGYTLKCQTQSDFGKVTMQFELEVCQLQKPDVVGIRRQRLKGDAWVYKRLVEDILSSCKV
For experiment [7], the target named is Serine/threonine-protein kinase PLK1 (Homo sapiens, UniProt P53350). In words: Percentage PLK1 activity remaining in the presence of 0.01uM inhibitor.
Serine/threonine-protein kinase PLK1, sequence (P53350 whole entry): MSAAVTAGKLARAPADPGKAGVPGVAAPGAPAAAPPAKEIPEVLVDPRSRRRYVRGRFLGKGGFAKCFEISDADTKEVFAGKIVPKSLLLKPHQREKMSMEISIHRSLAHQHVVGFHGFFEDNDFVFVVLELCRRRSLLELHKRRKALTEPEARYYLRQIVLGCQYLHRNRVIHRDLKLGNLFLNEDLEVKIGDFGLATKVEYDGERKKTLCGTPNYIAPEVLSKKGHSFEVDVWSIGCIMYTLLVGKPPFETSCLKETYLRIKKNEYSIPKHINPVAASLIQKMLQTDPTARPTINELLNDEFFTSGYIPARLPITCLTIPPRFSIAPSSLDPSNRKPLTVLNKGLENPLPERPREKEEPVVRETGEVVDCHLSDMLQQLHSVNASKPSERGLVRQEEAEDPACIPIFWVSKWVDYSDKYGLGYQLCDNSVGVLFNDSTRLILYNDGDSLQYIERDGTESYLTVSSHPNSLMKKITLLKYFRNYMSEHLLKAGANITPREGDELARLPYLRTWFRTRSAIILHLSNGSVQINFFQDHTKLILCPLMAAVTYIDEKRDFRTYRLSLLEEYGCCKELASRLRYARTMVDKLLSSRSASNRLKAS
In experiment [8] the target is T2, MAP kinase-activated protein kinase 5 (Homo sapiens) (UniProt Q8IW41).
T2 sequence (whole entry): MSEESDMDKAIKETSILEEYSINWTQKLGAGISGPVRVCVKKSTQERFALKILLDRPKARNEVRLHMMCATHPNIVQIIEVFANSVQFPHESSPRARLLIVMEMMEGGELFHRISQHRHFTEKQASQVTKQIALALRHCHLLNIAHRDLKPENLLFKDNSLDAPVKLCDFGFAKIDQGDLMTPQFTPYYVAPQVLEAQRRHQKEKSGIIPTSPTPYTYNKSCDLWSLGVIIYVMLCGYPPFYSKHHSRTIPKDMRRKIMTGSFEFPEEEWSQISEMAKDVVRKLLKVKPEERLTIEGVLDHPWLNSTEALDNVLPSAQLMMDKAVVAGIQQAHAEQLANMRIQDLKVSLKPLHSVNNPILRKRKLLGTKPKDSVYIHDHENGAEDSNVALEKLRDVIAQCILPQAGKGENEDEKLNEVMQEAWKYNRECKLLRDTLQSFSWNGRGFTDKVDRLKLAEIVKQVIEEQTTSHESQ
In words: Percentage PRAK activity remaining in the presence of 0.01uM inhibitor.

Experiment [9] has as its target Mitogen-activated protein kinase 8 (Homo sapiens, UniProt P45983). Kind of experiment: Percentage JNK1 activity remaining in the presence of 0.01uM inhibitor.
The target of experiment [10] is T3, Aurora kinase C (Homo sapiens) (UniProt Q9UQB9).
T3 sequence (whole entry): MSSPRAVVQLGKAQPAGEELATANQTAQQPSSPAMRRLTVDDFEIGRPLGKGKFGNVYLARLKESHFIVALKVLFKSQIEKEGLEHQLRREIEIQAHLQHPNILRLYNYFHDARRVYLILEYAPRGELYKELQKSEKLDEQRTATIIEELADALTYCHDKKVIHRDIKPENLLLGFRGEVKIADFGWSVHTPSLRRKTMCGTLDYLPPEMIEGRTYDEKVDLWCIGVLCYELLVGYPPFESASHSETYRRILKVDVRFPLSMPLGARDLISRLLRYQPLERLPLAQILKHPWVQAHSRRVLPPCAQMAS
Kind of experiment: Percentage Aurora C activity remaining in the presence of 0.01uM inhibitor.

Experiment [11] addresses T4, Serine/threonine-protein kinase D1 (Homo sapiens) (UniProt Q15139).
T4 sequence (whole entry): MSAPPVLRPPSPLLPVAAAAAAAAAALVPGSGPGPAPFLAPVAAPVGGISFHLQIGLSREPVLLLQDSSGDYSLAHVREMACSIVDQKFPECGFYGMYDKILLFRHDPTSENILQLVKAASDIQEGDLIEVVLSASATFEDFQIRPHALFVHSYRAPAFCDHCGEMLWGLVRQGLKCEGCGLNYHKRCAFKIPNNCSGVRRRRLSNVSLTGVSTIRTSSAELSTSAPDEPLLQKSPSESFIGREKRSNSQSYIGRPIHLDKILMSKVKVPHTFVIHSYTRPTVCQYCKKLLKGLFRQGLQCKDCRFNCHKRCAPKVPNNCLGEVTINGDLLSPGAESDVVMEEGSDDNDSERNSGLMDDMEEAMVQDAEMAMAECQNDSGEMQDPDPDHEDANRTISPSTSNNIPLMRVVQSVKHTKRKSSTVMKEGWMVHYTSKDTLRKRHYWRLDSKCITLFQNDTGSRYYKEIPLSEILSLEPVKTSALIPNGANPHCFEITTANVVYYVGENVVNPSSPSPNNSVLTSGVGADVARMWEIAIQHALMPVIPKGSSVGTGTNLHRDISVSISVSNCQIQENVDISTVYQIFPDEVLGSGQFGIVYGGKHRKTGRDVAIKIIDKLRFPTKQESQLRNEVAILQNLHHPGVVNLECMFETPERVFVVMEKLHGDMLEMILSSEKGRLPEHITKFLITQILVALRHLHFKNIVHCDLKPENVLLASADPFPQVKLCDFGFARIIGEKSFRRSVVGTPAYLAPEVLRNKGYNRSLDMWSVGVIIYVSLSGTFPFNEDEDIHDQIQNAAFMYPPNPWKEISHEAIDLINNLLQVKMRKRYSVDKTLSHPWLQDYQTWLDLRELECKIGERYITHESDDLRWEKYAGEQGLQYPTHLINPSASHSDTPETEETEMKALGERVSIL
In words: Percentage PKD1 activity remaining in the presence of 0.01uM inhibitor.

The target of experiment [12] is Ribosomal protein S6 kinase alpha-5 (Homo sapiens) (UniProt O75582). In words: Percentage MSK1 activity remaining in the presence of 0.01uM inhibitor.
Ribosomal protein S6 kinase alpha-5 (Homo sapiens), sequence (O75582 whole entry, looked up): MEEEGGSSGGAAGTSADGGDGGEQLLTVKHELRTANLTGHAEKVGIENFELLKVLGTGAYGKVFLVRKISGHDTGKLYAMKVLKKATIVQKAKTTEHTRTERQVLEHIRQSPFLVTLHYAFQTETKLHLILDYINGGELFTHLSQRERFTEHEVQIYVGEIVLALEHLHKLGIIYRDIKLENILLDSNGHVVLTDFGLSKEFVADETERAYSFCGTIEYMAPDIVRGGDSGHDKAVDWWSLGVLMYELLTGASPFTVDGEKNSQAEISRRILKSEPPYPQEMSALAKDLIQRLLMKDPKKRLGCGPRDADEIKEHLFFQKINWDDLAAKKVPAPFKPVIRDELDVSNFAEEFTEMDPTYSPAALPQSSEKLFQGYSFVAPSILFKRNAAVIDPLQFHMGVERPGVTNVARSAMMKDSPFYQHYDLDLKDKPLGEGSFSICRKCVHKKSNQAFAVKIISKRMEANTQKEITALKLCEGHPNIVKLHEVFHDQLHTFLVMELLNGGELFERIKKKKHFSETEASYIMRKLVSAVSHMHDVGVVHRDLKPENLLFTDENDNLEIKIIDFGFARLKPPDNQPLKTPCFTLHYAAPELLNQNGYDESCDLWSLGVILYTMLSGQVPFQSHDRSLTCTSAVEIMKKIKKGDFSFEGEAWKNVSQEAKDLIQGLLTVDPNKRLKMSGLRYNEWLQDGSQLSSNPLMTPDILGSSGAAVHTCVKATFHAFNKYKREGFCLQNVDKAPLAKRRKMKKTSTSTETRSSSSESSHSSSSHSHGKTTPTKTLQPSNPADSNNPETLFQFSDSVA
Experiment [13] addresses Glycogen synthase kinase-3 beta (Homo sapiens, UniProt P49841). In words: Percentage GSK3-beta activity remaining in the presence of 0.01uM inhibitor.
The species named for the next experiment is Homo sapiens. Kind of experiment: Percentage PHK activity remaining in the presence of 0.01uM inhibitor.
The target in experiment [14] is Ribosomal protein S6 kinase alpha-1 (Homo sapiens) (UniProt Q15418). In words: Percentage RSK1 activity remaining in the presence of 0.01uM inhibitor.
Experiment [15] concerns the target Proto-oncogene tyrosine-protein kinase Src (Gallus gallus) (UniProt P00523). Kind of experiment: Percentage Src activity remaining in the presence of 0.01uM inhibitor.

Glycogen synthase kinase-3 beta, sequence (P49841 whole entry, looked up): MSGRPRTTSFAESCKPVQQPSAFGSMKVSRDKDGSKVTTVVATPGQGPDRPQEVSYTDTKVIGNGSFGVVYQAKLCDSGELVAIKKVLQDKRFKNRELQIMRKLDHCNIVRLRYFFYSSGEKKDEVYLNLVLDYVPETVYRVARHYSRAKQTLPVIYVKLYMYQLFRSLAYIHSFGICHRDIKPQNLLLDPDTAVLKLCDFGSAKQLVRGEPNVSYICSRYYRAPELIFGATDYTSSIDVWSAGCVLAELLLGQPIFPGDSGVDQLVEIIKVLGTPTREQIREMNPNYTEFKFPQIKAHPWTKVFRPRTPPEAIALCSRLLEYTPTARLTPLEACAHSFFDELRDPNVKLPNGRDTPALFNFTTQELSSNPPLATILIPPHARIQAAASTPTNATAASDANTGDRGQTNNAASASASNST
Serine/threonine-protein kinase pim-1, sequence (P11309 whole entry, looked up): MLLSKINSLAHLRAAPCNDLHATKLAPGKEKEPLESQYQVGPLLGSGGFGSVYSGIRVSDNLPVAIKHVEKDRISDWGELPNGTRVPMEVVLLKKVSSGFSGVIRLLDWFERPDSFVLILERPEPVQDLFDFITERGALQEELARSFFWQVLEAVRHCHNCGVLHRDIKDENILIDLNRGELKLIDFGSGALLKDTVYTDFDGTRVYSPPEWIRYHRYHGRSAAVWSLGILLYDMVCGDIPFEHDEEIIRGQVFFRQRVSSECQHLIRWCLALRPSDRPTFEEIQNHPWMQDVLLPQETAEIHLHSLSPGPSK
Mitogen-activated protein kinase 8, sequence (P45983 whole entry): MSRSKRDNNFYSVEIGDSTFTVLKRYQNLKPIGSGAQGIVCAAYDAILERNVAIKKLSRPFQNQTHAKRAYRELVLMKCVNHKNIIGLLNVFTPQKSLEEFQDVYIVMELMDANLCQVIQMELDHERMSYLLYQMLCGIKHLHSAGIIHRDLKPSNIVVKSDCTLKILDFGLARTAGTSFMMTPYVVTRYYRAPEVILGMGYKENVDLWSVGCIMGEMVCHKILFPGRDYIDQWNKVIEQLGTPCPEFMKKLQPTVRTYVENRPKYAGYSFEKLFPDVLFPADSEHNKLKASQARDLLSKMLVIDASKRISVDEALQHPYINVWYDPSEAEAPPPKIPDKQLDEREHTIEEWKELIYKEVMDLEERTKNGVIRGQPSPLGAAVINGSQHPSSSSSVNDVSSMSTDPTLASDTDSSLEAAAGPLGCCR

For the compound `Cc1n[nH]c2ccc(-c3cncc(OC[C@@H](N)Cc4c[nH]c5ccccc45)c3)cc12`, the Activity in [1] was determined as 57%; in [2] it was 59%; in experiment [3], 86%; in experiment [4] it was 97%; in experiment [5] it was 86%; in [6] it was 96%. Also, the Activity in experiment [7] was 89%; in experiment [8], 107%; in experiment [9], 89%; in [10] it was 100%; in experiment [11], 63%; in experiment [12] (filed as antagonist), 19%. Further, the Activity in [13] stood at 81%; in the experiment listed under Homo sapiens it was 86%; in [14], 78%; in [15] it was 91%.

`O=C(NCCCNc1nc(Nc2cccc(NC(=O)N3CCCC3)c2)ncc1I)c1cccs1`: the Activity was 103% in experiment [1]; 108% in experiment [2]; 91% in [3]; 97% in experiment [4]; 111% in [5]; 95% in [6]. In addition, the Activity in experiment [7] is 95%; in [8], 97%; in experiment [9] it was 104%; in [10] (filed as antagonist) it was 27%; in experiment [11], 84%; in experiment [12], 88%. For the same compound, the Activity in [13] worked out at 82%; in the experiment listed under Homo sapiens, 94%; in [14] it was 100%; in experiment [15], 90%.

Consider `CN[C@@H]1C[C@H]2O[C@@](C)([C@@H]1OC)n1c3ccccc3c3c4c(c5c6ccccc6n2c5c31)C(=O)N[C@H]4O` (stereo in doubt), for which the Activity in experiment [1] is 52%; in experiment [2] it was 73%; in experiment [3] it was 94%; in experiment [4] (filed as antagonist), 50%; in experiment [5], 99%; in [6] it was 53%. The Activity in experiment [7] is 76%; in experiment [8], 83%; in [9], 79%; in [10], 71%; in experiment [11], 83%; in experiment [12], 68%. In addition, the Activity in experiment [13] is 77%; in the experiment listed under Homo sapiens (filed as antagonist) it was 5%; in experiment [14] (filed as antagonist), 25%; in experiment [15], 76%.
